From patent publication US20250026748A1, “N-(5-SUBSTITUTED-[(1,3,4-THIADIAZOLYL) OR (THIAZOLYL)])(SUBSTITUTED)CARBOXAMIDE COMPOUNDS AND USE THEREOF FOR INHIBITING HUMAN POLYMERASE THETA” (Repare Therapeutics Inc., priority 2021, published 2025)
Like-named read-outs stand apart in the source and are kept apart here.

Assays:
[1] = molecular target: Polθ ATPase enzyme (1-894) (Homo sapiens (Human), UniProt O75417); assay: Polθ ATPase enzymatic assay (3 nM enzyme concentration), ADP-Glo; type: biochemical
Method: Polθ ATPase enzyme (1-894) at 3 nM is incubated with a 10-point concentration response of inhibitors for 15 min at rt in the following buffer: 50 mM Tris Cl pH 7.5, 10% glycerol, 5 mM DTT, 10 mM MgCl2, 0.1 mg/ml BSA. Following pre-incubation with inhibitors, DNA (Fork C) at 20 nM and ATP at 100 μM are added to start the reaction. Enzymatic reaction proceeds at rt for 60 min. ATP consumption is measured using the ADP-Glo assay from Promega. Luminescence is read on the Envision and IC50 are determined using the variable slope 4-parameters equation.
DNA (Fork C) is made by annealing 3 different oligos containing the following sequence of nucleotides:
Oligos are annealed by heating at 95° C. for 5 min in the following buffer (10 mM Tris-HCl pH7.5, 50 mM NaCl, 1 mM EDTA) and cooled to rt. […]

[2] = molecular target: PolQ ATPase enzyme (1-894) (Homo sapiens (Human), UniProt O75417); assay: Polθ ATPase enzymatic assay (0.5 nM enzyme concentration), ADP-Glo; type: biochemical; conditions: average IC50; 0.5 nM PolQ ATPase enzyme (1-894)
Method in brief: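 Enzyme (0.5 nM) pre-incubated 15 min at rt with 10-point inhibitor series in 50 mM Tris pH 7.5, 10% glycerol, 5 mM DTT, 10 mM MgCl2, 0.1 mg/ml BSA; reaction started with 20 nM fork DNA and 100 μM ATP, run 180 min at rt. ADP-Glo luminescence; IC50 from 4-parameter variable-slope fit.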

[3] = read-out: IC50 (nM) [PolQ] 3 nM, average IC50, 3 nM PolQ ATPase enzyme (1-894)

Polθ ATPase enzyme (1-894), sequence (O75417 1-894): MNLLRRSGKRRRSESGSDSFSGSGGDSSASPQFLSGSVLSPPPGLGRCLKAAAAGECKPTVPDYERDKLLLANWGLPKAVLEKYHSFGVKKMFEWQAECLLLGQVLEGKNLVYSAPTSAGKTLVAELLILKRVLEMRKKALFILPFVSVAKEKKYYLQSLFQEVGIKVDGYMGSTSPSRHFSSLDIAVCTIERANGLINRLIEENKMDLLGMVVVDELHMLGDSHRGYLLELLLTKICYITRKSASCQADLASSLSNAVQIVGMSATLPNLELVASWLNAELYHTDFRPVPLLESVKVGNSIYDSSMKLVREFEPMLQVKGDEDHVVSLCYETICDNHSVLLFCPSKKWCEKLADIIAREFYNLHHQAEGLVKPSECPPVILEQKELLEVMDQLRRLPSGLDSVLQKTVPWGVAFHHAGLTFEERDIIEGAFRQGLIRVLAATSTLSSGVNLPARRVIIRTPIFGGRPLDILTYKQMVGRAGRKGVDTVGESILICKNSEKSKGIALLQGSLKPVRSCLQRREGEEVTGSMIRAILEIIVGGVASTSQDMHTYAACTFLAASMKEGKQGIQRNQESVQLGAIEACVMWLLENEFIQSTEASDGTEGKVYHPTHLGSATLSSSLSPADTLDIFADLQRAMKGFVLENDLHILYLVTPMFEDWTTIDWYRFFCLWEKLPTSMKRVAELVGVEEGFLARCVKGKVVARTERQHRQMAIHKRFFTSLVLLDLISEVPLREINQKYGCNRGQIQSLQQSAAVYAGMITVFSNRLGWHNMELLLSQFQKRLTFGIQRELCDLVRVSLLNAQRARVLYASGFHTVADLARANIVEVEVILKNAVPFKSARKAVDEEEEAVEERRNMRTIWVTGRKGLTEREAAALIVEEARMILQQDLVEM
PolQ ATPase enzyme (1-894), sequence (O75417 1-894): as above

IC50 [1, 3] [nM] | IC50 [2] [nM] | IC50 [1] [nM] | Compound
1.5 | 1.3 | – | COc1cnc(Cl)cc1-c1cnccc1C(=O)Nc1nnc(C#CC2CC2)s1 [Compound 25]
117 | – | – | COc1ccc(F)cc1-c1cnccc1C(=O)Nc1nnc(C#Cc2ccc3nccn3n2)s1 [Compound 11]
– | 2.2 | 3.3 | COc1ccc(C#N)cc1-c1cnccc1C(=O)Nc1nnc(C2C[C@H]2c2ccc(C#N)cc2)s1 (mixture of isomers) [Compound 2, N-(5-((1R,2R)-2-(4-cyanophenyl)cyclopropyl)-1,3,4-thiadiazol-2-yl)-3-(5-cyano-2-methoxyphenyl)isonicotinamide]
134 | – | – | COc1ccc(C#N)cc1-n1cncc1C(=O)Nc1nnc(C#CC2CC2)s1 [Compound 23]
33 | – | – | COc1ccc(C#N)cc1-c1cnccc1C(=O)Nc1nnc(C#CC2(N)CC2)s1 [Compound 9]
6.9 | 4.2 | – | COc1c(F)cccc1-c1cnccc1C(=O)Nc1nnc(C#CC2CC2)s1 [Compound 13]
2.9 | 1.5 | – | COc1ccc(C#N)cc1-c1cnccc1C(=O)Nc1nnc(C#CC2CCC2)s1 [Compound 5]
204 | – | – | COc1ccc(F)cc1-c1cn(C)c(=O)cc1C(=O)Nc1nnc(C#Cc2cnn(C3CCCNC3)c2)s1 (stereo not shown) [Compound 18]
139 | – | – | COc1ccc(F)cc1-c1cnccc1C(=O)Nc1nnc(C#Cc2cnc3cnccn23)s1 [Compound 14]
12 | – | – | COc1ccc(C#N)cc1-c1cnccc1C(=O)Nc1nnc(C#CC2COC2)s1 [Compound 7, 3-(5-cyano-2-methoxyphenyl)-N-(5-(oxetan-3-ylethynyl)-1,3,4-thiadiazol-2-yl)isonicotinamide]
12 | – | – | COc1ccc(F)cc1-c1cn(C)c(=O)cc1C(=O)Nc1nnc(C#CC2CC2)s1 [Compound 21]
5.8 | 1.1 | – | COc1ccc(F)cc1-c1cnccc1C(=O)Nc1nnc([C@@H]2C[C@H]2c2ccc(C#N)cc2)s1 [Compound 1, N-(5-((1R,2R)-2-(4-cyanophenyl)cyclopropyl)-1,3,4-thiadiazol-2-yl)-3-(5-fluoro-2-methoxyphenyl)isonicotinamide]
2 | 3.5 | – | COc1ccc(C#N)cc1-c1cnccc1C(=O)Nc1nnc(C#CC2CC2)s1 [Compound 12, 3-(5-cyano-2-methoxyphenyl)-N-(5-(cyclopropylethynyl)-1,3,4-thiadiazol-2-yl)isonicotinamide]
< 1.5 | 0.78 | – | COc1ccc(C(F)(F)F)cc1-c1cnccc1C(=O)Nc1nnc(C#CC2CC2)s1 [Compound 24]
23 | – | – | COc1ccc(F)cc1-c1cnccc1C(=O)Nc1nnc([C@@H]2C[C@H]2c2ccn(C)n2)s1 [Compound 3, 3-(5-fluoro-2-methoxyphenyl)-N-(5-((1R,2R)-2-(1-methyl-1H-pyrazol-3-yl)cyclopropyl)-1,3,4-thiadiazol-2-yl)isonicotinamide]
21 | – | – | COc1ccc(C#N)cc1-c1cn(C)c(=O)cc1C(=O)Nc1nnc(C#CC2CC2)s1 [Compound 20]
92 | – | – | COc1ccc(F)cc1-c1cnccc1C(=O)Nc1nnc([C@@H]2C[C@H]2c2nc3ccccc3n2C)s1 [Compound 4, 3-(5-fluoro-2-methoxyphenyl)-N-(5-((1R,2R)-2-(1-methyl-1H-benzo[d]imidazol-2-yl)cyclopropyl)-1,3,4-thiadiazol-2-yl)isonicotinamide]

IC50 [1, 3] [nM] | IC50 [2] [nM] | IC50 [1] [nM] | Compound
27 | – | – | COc1ccc(F)cc1-c1cn(C)c(=O)cc1C(=O)Nc1nnc(C#Cc2ccn(C)n2)s1 [Compound 19]
54 | – | – | COc1ccc(F)cc1-c1cnccc1C(=O)Nc1nnc(C#Cc2cnc(C#N)c(OC)c2)s1 [Compound 10]
15 | – | – | COc1ccc(C#N)cc1-c1cn(C)c(=O)cc1C(=O)Nc1nnc(C2C[C@H]2c2ccc(C#N)cc2)s1 (stereo partly shown) [Compound 15]
2.6 | 0.53 | – | COc1cnc(Cl)cc1-c1cnccc1C(=O)Nc1nnc([C@@H]2C[C@H]2c2ccc(C#N)cc2)s1 [Compound 26, 2′-chloro-N-(5-((1R,2R)-2-(4-cyanophenyl)cyclopropyl)-1,3,4-thiadiazol-2-yl)-5′-methoxy-[3,4′-bipyridine]-4-carboxamide]
48 | – | – | COc1ccc(F)cc1-c1cnccc1C(=O)Nc1nnc(C#Cc2cnn(CC#N)c2)s1 [Compound 8, N-(5-((1-(cyanomethyl)-1H-pyrazol-4-yl)ethynyl)-1,3,4-thiadiazol-2-yl)-3-(5-fluoro-2-methoxyphenyl)isonicotinamide]
2 | 0.63 | – | COc1ccc(C#N)cc1-c1cnccc1C(=O)Nc1nnc(C#CC2CC23CC3)s1 (stereo not shown) [Compound 6, 3-(5-cyano-2-methoxyphenyl)-N-(5-(spiro[2.2]pentan-1-ylethynyl)-1,3,4-thiadiazol-2-yl)isonicotinamide]
12 | – | – | COc1ccc(F)cc1-n1cncc1C(=O)Nc1nnc(C#CC2CC2)s1 [Compound 22]
5.4 | 3.2 | – | COc1ccc(F)cc1-c1cn(C)c(=O)cc1C(=O)Nc1nnc(C#Cc2cc(C)[nH]n2)s1 [Compound 17]
– | < 0.25 | – | COc1cnc(C(F)F)cc1-c1cc(C#CC2(O)CCOCC2)ccc1C(=O)Nc1nnc(C#CC2CC2)s1 [Compound 283]
– | 5.6 | – | COc1cnc(C(F)F)cc1-c1cc(C2=CCOCC2)ncc1C(=O)Nc1nnc(C#CC2CC2)s1 [Compound 284]
– | 1.4 | – | [2H]C([2H])([2H])N(C(=O)C1CCOC1)c1ccc(C(=O)Nc2nnc(C#CC3CC3)s2)c(-c2cc(C(F)F)ncc2OC)c1 (stereo not shown) [Compound 229]
– | 0.31 | – | COc1cnc(C(F)F)cc1-c1cc(OC[C@@H]2CCC(=O)N2C)ncc1C(=O)Nc1nnc(C#CC2CC2)s1 [Compound 147]
– | 4.7 | – | COc1cnc(C(F)(F)F)nc1-c1cnccc1C(=O)Nc1nnc(C#CC2CC2)s1 [Compound 338]
– | 0.91 | – | COc1cnc(C(F)(F)F)cc1-c1cn(C)c(=O)cc1C(=O)Nc1nnc(C#CC2CC23CC3)s1 (stereo not shown) [Compound 58]
– | 0.45 | – | COc1cnc(C(F)F)cc1-c1cc(C#CC(C)(C)C#N)ncc1C(=O)Nc1nnc(C#CC2CC2)s1 [Compound 184]
– | 3.1 | – | COc1cnc(C(F)F)cc1-c1cnccc1C(=O)Nc1nnc([C@H]2C[C@@H]2c2ccc(C#N)cc2)s1 [Compound 275]
